Experiments:
Pseudomonas aeruginosa = test: MIC/MBC assay (CLSI method); assay type: cell-based; conditions: combined composition of β-cyclodextrin and MTDD
Mycobacterium abscessus = test: MIC/MBC assay (CLSI method); assay type: cell-based; conditions: unit not given

NO Load (unit not given)	MIC (Mycobacterium abscessus; M. abscessus N0010, clinical)	MIC (Mycobacterium abscessus; M. abscessus N0016, clinical)	MIC (Mycobacterium abscessus; M. abscessus N0017, clinical)	MIC (Mycobacterium abscessus; M. abscessus N0018, clinical)	MIC (Mycobacterium abscessus; M. abscessus N0019, clinical)	MIC (Mycobacterium abscessus; M. abscessus N0020, clinical)	MIC (Mycobacterium abscessus; M. abscessus N0046)	Compound	MIC against P. aeruginosa (Pseudomonas aeruginosa) [µg/mL]	NO-loading (combined composition of β-cyclodextrin and MTDD) [µmol/mg]	MBC (Mycobacterium abscessus; M. abscessus N0010, clinical)	MBC (Mycobacterium abscessus; M. abscessus N0016, clinical)	MBC (Mycobacterium abscessus; M. abscessus N0017, clinical)	MBC (Mycobacterium abscessus; M. abscessus N0018, clinical)	MBC (Mycobacterium abscessus; M. abscessus N0019, clinical)	MBC (Mycobacterium abscessus; M. abscessus N0020, clinical)	MBC (Mycobacterium abscessus; M. abscessus N0046)
								OC[C@H]1O[C@@H]2O[C@H]3[C@H](O)[C@@H](O)[C@@H](O[C@H]4[C@H](O)[C@@H](O)[C@@H](O[C@H]5[C@H](O)[C@@H](O)[C@@H](O[C@H]6[C@H](O)[C@@H](O)[C@@H](O[C@H]7[C@H](O)[C@@H](O)[C@@H](O[C@H]8[C@H](O)[C@@H](O)[C@@H](O[C@H]1[C@H](O)[C@H]2O)O[C@@H]8CO)O[C@@H]7CO)O[C@@H]6CO)O[C@@H]5CO)O[C@@H]4CO)O[C@@H]3CO [0% MTDD, β-cyclodextrin]	>6250	0.0							
6.9	1	2	2	1	2	1	2	C[C@@H]1CCC[C@H](C)N1[N+]([O-])=N[O-].[Na+] [cis-DMP/NO]			4	4	4	4	4	2	4

Reference: patent US11813270B2, “Nitric oxide-releasing antibacterial compounds, formulations, and methods pertaining thereto” (KNOW BIO, LLC, priority 2020, dated 2023)
